Reference: ChEMBL document CHEMBL4196012 (Eur J Med Chem, 2018)

Assays:
Escherichia coli [1] = test: In vivo antibacterial activity against Escherichia coli NCTC 10419 infected in po dosed mouse administered at 1 and 4 hrs post infection; assay type: functional, organism-based
Staphylococcus aureus [2] = test: Potency index, ratio of ciprofloxacin MIC to compound MIC for antibacterial activity against vancomycin-insensitive Staphylococcus aureus; assay type: functional
[3] = Partition coefficient, log P of the compound; assay type: physicochemical; details: octanol/water
Staphylococcus aureus [4] = test: Antibacterial activity against Staphylococcus aureus ATCC 29213 after 16 to 20 hrs by NCCLS microdilution method; assay type: functional
Staphylococcus aureus [5] = test: Antibacterial activity against quinolone-resistant Staphylococcus aureus after 16 to 20 hrs by NCCLS microdilution method; assay type: functional
Staphylococcus aureus [6] = test: Antibacterial activity against linezolid-resistant Staphylococcus aureus after 16 to 20 hrs by NCCLS microdilution method; assay type: functional
Enterococcus faecalis [7] = test: Antibacterial activity against Enterococcus faecalis ATCC 29212 after 16 to 20 hrs by NCCLS microdilution method; assay type: functional
Enterococcus faecalis [8] = test: Antibacterial activity against linezolid-resistant Enterococcus faecalis after 16 to 20 hrs by NCCLS microdilution method; assay type: functional
Enterococcus faecium = test: Antibacterial activity against vancomycin and quinolone-resistant Enterococcus faecium after 16 to 20 hrs by NCCLS microdilution method; assay type: functional
Streptococcus pneumoniae [9] = test: Antibacterial activity against Streptococcus pneumoniae ATCC 49619 after 16 to 20 hrs by NCCLS microdilution method; assay type: functional
Streptococcus pneumoniae [10] = test: Antibacterial activity against quinolone-resistant Streptococcus pneumoniae after 16 to 20 hrs by NCCLS microdilution method; assay type: functional
Haemophilus influenzae = test: Antibacterial activity against Haemophilus influenzae 11 after 16 to 20 hrs by NCCLS microdilution method; assay type: functional
Moraxella catarrhalis = test: Antibacterial activity against Moraxella catarrhalis ATCC 8176 after 16 to 20 hrs by NCCLS microdilution method; assay type: functional
Escherichia coli [11] = test: Antibacterial activity against Escherichia coli ATCC 25922 after 16 to 20 hrs by NCCLS microdilution method; assay type: functional
[12] = tested on: Yersinia pseudotuberculosis; test: Antibacterial activity against Yersinia pseudotuberculosis ATCC 911 after 18 to 24 hrs by double microdilution method; assay type: functional
Enterococcus faecalis [13] = test: Antibacterial activity against Enterococcus faecalis ATCC 29212 after 18 to 24 hrs by double microdilution method; assay type: functional
Staphylococcus aureus [14] = test: Antibacterial activity against Staphylococcus aureus ATCC 25923 after 18 to 24 hrs by double microdilution method; assay type: functional
Bacillus cereus = test: Antibacterial activity against Bacillus cereus 709 Roma after 18 to 24 hrs by double microdilution method; assay type: functional
[15] = tested on: Mycolicibacterium smegmatis; test: Antibacterial activity against Mycobacterium smegmatis ATCC 607 after 48 to 72 hrs by double microdilution method; assay type: functional
Escherichia coli [16] = test: Antibacterial activity against Escherichia coli ATCC 35218 after 18 to 24 hrs by double microdilution method; assay type: functional
Pseudomonas aeruginosa [17] = test: Antibacterial activity against Pseudomonas aeruginosa ATCC 10145 after 18 to 24 hrs by double microdilution method; assay type: functional
Bacillus subtilis = test: Antibacterial activity against Bacillus subtilis NCDC 71 after overnight incubation by single disc method; assay type: functional
Escherichia coli [18] = test: Antibacterial activity against Escherichia coli NCDC 134 after overnight incubation by single disc method; assay type: functional
Pseudomonas aeruginosa [19] = test: Antibacterial activity against Pseudomonas aeruginosa NCDC105 after overnight incubation by single disc method; assay type: functional
Paenibacillus polymyxa = test: Antibacterial activity against Paenibacillus polymyxa NCDC 64 after overnight incubation by single disc method; assay type: functional
Staphylococcus aureus [20] = test: Antibacterial activity against Staphylococcus aureus NCDC 110 after overnight incubation by single disc method; assay type: functional

COc1cc(Cc2cnc(/N=C3\C(=O)N(CN4CCN(c5cc6c(cc5F)c(=O)c(C(=O)O)cn6C5CC5)CC4)c4ccc(C)cc43)nc2N)cc(OC)c1OC
0.62 mg/kg: EC50 (Escherichia coli [1])

CCn1cc(C(=O)O)c(=O)c2cnc(N3CCN(Cc4ccc(CN5CCN(c6cc7c(cc6F)c(=O)c(C(=O)O)cn7C6CC6)CC5)cc4)CC3)nc21
>4: Ratio (Staphylococcus aureus [2])

COC(=O)c1cn(C2CC2)c2cc(N3CCNCC3)c(F)cc2c1=O
-0.441: logP [3]

CCCOC(=O)c1cn(C2CC2)c2cc(N3CCNCC3)c(F)cc2c1=O
0.437: logP [3]

CC(=O)NC[C@H]1CN(c2ccc(N3CCN(c4cc5c(cc4F)c(=O)c(C(=O)O)cn5C4CC4)CC3)c(F)c2)C(=O)O1
0.25 to 0.5 mg/L: MIC (Staphylococcus aureus [5]) | MIC (Enterococcus faecium) | MIC (Streptococcus pneumoniae [10])
0.125 to 4 mg/L: MIC (Staphylococcus aureus [4]) | MIC (Staphylococcus aureus [6]) | MIC (Enterococcus faecalis [7]) | MIC (Enterococcus faecalis [8]) | MIC (Streptococcus pneumoniae [9]) | MIC (Haemophilus influenzae) | MIC (Moraxella catarrhalis) | MIC (Escherichia coli [11])

CCn1c(CNc2ccc(N3CCN(c4ccc(F)cc4)CC3)c(F)c2)nn(CN2CCN(c3cc4c(cc3F)c(=O)c(C(=O)O)cn4C3CC3)CC2)c1=S
< 0.24 mg/L: MIC [12] | MIC (Enterococcus faecalis [13]) | MIC (Staphylococcus aureus [14]) | MIC (Bacillus cereus) | MIC [15] | MIC (Escherichia coli [16]) | MIC (Pseudomonas aeruginosa [17])

O=C(CN1CCN(c2cc3c(cc2F)c(=O)c(C(=O)O)cn3C2CC2)CC1)Nc1nc2ccc([N+](=O)[O-])cc2s1
3 to 125 mg/L: MIC (Bacillus subtilis) | MIC (Escherichia coli [18]) | MIC (Pseudomonas aeruginosa [19]) | MIC (Paenibacillus polymyxa) | MIC (Staphylococcus aureus [20])

O=C(CN1CCN(c2cc3c(cc2F)c(=O)c(C(=O)O)cn3C2CC2)CC1)Nc1nc2ccc(Cl)cc2s1
3 to 15 mg/L: MIC (Bacillus subtilis) | MIC (Escherichia coli [18]) | MIC (Pseudomonas aeruginosa [19]) | MIC (Paenibacillus polymyxa) | MIC (Staphylococcus aureus [20])

COc1ccccc1N1CCN(Cc2nn(CN3CCN(c4cc5c(cc4F)c(=O)c(C(=O)O)cn5C4CC4)CC3)c(=O)n2Cc2ccccc2)CC1
< 0.24 mg/L: MIC [12] | MIC (Enterococcus faecalis [13]) | MIC (Staphylococcus aureus [14]) | MIC (Bacillus cereus) | MIC [15] | MIC (Escherichia coli [16]) | MIC (Pseudomonas aeruginosa [17])

COc1ccccc1N1CCN(Cc2nn(CN3CCN(c4cc5c(cc4F)c(=O)c(C(=O)O)cn5C4CC4)CC3)c(=S)n2Cc2ccccc2)CC1
< 0.24 mg/L: MIC [12] | MIC (Enterococcus faecalis [13]) | MIC (Staphylococcus aureus [14]) | MIC (Bacillus cereus) | MIC [15] | MIC (Escherichia coli [16]) | MIC (Pseudomonas aeruginosa [17])

O=C(O)c1cn(C2CC2)c2cc(N3CCN(Cn4nc(CNc5ccc(N6CCN(c7ccc(F)cc7)CC6)c(F)c5)n(Cc5ccccc5)c4=S)CC3)c(F)cc2c1=O
< 0.24 mg/L: MIC [12] | MIC (Enterococcus faecalis [13]) | MIC (Staphylococcus aureus [14]) | MIC (Bacillus cereus) | MIC [15] | MIC (Escherichia coli [16]) | MIC (Pseudomonas aeruginosa [17])

O=C(CN1CCN(c2cc3c(cc2F)c(=O)c(C(=O)O)cn3C2CC2)CC1)Nc1nc2c(Cl)ccc(Cl)c2s1
3 to 125 mg/L: MIC (Bacillus subtilis) | MIC (Escherichia coli [18]) | MIC (Pseudomonas aeruginosa [19]) | MIC (Paenibacillus polymyxa) | MIC (Staphylococcus aureus [20])
